{"source": "ChEMBL document CHEMBL1126371", "about": "“Indazole and indoline as aromatic bioisosteres in the imidazole class of serotonin 5-HT3 receptor antagonists” (Bioorg Med Chem Lett, 1992)", "key": {"Rattus norvegicus [1]": {"test_system": "Rattus norvegicus", "experiment": "Percent maximum inhibition against Bezold-Jarisch reflex in 5 rats at a dose of 6 ug/kg, iv", "assay_type": "functional"}, "Rattus norvegicus [2]": {"test_system": "Rattus norvegicus", "experiment": "Dose required for inhibition of bradycardia induced by a submaximal dose (iv) of 5-HT in 4 rats", "assay_type": "functional", "conditions": "read-out: ID50 (the source's name)"}, "Rattus norvegicus [3]": {"test_system": "Rattus norvegicus", "experiment": "Time required to achieve 50% recovery of Bezold-Jarisch reflex in 5 rats at a dose of 6 ug/kg, iv", "assay_type": "functional"}, "Rattus norvegicus [4]": {"test_system": "Rattus norvegicus", "experiment": "Dose required for inhibition of bradycardia induced by a submaximal dose (iv) of 5-HT in 5 rats", "assay_type": "functional", "conditions": "read-out: ID50 (the source's name)"}, "Rattus norvegicus [5]": {"test_system": "Rattus norvegicus", "experiment": "Dose required for inhibition of bradycardia induced by a submaximal dose (iv) of 5-HT in 3 rats", "assay_type": "functional", "conditions": "read-out: ID50 (the source's name)"}, "Rattus norvegicus [6]": {"test_system": "Rattus norvegicus", "experiment": "Dose required for inhibition of bradycardia induced by a submaximal dose (iv) of 5-HT in 7 rats", "assay_type": "functional", "conditions": "read-out: ID50 (the source's name)"}, "Rattus norvegicus [7]": {"test_system": "Rattus norvegicus", "experiment": "Time required to achieve 50% recovery of Bezold-Jarisch reflex in 9 rats at a dose of 6 ug/kg, iv", "assay_type": "functional"}, "Mustela putorius furo [8]": {"test_system": "Mustela putorius furo", "experiment": "Reduction in the latency period to the first episode in ferret at a dose of 0.5 mg/kg, po", "assay_type": "functional"}, "Rattus norvegicus [9]": {"test_system": "Rattus norvegicus", "experiment": "Percent maximum inhibition against Bezold-Jarisch reflex in 4 rats at a dose of 6 ug/kg, iv, after 5 min", "assay_type": "functional"}, "[10]": {"molecular_target": "Serotonin 2 (5-HT2) receptor (Rattus norvegicus) (UniProt P30994+P08909+P14842)", "sequence (P14842 whole entry, looked up, one chain of several)": "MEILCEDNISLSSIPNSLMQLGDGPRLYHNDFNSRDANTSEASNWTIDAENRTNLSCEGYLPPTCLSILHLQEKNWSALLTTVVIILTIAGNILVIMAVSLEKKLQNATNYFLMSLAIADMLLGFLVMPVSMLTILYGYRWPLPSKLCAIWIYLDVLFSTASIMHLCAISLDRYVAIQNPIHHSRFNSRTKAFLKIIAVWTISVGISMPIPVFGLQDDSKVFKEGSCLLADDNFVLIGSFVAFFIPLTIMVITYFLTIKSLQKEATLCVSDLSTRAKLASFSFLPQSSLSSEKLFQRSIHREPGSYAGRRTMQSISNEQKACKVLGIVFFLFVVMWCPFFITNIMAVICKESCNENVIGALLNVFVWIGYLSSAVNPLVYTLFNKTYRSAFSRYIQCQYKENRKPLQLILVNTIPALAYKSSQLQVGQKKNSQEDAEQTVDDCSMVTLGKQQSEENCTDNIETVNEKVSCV", "sequence (P30994 whole entry, looked up, one chain of several)": "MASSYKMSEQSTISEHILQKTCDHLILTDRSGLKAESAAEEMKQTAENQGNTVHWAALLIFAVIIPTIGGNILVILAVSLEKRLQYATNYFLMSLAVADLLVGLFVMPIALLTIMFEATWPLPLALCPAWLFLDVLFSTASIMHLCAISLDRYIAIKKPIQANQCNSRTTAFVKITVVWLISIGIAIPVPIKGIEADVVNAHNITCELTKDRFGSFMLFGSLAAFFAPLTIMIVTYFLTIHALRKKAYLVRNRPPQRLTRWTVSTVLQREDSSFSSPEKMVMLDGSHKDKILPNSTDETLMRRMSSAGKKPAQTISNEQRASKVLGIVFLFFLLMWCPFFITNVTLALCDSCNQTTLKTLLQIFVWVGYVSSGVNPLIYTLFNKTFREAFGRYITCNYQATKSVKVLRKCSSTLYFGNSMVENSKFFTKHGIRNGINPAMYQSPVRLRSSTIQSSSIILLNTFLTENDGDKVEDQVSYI", "experiment": "Tested for the effect on binding at 5-hydroxytryptamine 2 receptor; No activity", "assay_type": "protein assay"}, "[11]": {"molecular_target": "Serotonin 3 (5-HT3) receptor", "experiment": "Tested for antagonistic activity on 5-hydroxytryptamine 3 receptor mediated effects of 5-HT in guinea pig isolated ileum", "assay_type": "functional, tissue-based, Cavia porcellus"}, "Rattus norvegicus [12]": {"test_system": "Rattus norvegicus", "experiment": "Time required to achieve 50% recovery of Bezold-Jarisch reflex in 4 rats at a dose of 6 ug/kg, iv", "assay_type": "functional"}, "Mustela putorius furo [13]": {"test_system": "Mustela putorius furo", "experiment": "Reduction in the number of episodes of emesis in ferrets at a dose of 0.01 mg/kg, po", "assay_type": "functional"}, "[14]": {"molecular_target": "T1, 5-hydroxytryptamine receptor 1A (Rattus norvegicus) (UniProt P19327)", "T1 sequence (whole entry)": "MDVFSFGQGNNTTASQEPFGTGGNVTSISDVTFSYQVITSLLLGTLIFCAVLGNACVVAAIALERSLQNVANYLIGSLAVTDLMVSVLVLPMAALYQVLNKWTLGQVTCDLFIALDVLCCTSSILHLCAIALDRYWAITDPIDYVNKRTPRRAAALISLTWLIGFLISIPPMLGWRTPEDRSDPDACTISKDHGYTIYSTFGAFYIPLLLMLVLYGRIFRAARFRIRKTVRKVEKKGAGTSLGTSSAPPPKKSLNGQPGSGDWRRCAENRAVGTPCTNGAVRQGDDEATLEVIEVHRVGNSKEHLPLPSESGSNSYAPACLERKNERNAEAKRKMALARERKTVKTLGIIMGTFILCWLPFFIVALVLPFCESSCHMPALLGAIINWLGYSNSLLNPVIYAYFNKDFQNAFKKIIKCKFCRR", "experiment": "Tested for the effect on binding at 5-hydroxytryptamine 1A receptor; No activity"}, "[15]": {"molecular_target": "5-hydroxytryptamine receptor 4 (Rattus norvegicus) (UniProt Q62758)", "sequence (Q62758 whole entry)": "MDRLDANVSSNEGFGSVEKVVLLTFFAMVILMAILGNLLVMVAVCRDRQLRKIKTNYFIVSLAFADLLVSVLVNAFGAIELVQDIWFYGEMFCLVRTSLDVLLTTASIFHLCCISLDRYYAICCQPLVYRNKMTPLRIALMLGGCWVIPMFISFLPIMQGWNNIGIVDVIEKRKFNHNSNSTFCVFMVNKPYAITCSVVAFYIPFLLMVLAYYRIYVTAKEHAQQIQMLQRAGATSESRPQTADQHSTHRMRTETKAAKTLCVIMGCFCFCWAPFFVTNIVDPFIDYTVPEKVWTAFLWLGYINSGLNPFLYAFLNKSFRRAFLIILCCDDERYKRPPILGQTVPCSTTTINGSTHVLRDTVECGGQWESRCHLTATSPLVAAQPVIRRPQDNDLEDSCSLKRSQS", "experiment": "Tested for the effect on binding at 5-hydroxytryptamine 4 receptor; No activity"}, "[16]": {"molecular_target": "5-hydroxytryptamine receptor 1D (Rattus norvegicus) (UniProt P28565)", "sequence (P28565 whole entry)": "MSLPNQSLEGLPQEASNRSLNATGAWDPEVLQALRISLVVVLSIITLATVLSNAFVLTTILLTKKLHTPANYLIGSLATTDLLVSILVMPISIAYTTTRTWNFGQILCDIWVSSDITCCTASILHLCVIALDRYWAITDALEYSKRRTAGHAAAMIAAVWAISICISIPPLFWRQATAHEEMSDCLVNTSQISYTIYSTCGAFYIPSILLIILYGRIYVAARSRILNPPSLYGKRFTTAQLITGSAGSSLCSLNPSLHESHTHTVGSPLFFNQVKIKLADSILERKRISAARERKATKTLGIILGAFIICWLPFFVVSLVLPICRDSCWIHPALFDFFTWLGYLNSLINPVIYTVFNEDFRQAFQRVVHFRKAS", "experiment": "Tested for the effect on binding at 5-hydroxytryptamine 1D receptor; No activity"}, "[17]": {"molecular_target": "Alpha-2 adrenergic receptor (Rattus norvegicus)", "experiment": "Affinity at Alpha-2 adrenergic receptor in rat brain"}, "Mustela putorius furo [18]": {"test_system": "Mustela putorius furo", "experiment": "Reduction in the latency period to the first episode in ferret at a dose of 0.01 mg/kg, po", "assay_type": "functional"}, "Mustela putorius furo [19]": {"test_system": "Mustela putorius furo", "experiment": "Reduction in the number of episodes of emesis in 4 ferrets at a dose of 0.5 mg/kg, po", "assay_type": "functional"}, "[20]": {"molecular_target": "T2, 5-hydroxytryptamine receptor 2C (Rattus norvegicus) (UniProt P08909)", "T2 sequence (whole entry)": "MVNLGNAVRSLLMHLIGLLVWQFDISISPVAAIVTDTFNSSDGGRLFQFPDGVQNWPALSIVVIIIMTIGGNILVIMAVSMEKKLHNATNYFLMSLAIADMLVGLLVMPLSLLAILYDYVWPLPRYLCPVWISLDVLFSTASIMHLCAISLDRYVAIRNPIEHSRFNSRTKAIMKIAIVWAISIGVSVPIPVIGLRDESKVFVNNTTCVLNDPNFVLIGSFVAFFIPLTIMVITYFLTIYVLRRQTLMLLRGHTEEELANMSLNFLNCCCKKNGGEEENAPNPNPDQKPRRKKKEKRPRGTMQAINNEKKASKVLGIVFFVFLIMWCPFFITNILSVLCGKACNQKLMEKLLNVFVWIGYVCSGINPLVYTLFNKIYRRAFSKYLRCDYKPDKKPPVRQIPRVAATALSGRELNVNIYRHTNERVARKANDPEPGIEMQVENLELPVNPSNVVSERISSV", "experiment": "Tested for the effect on binding at 5-hydroxytryptamine 1C receptor; No activity"}, "Rattus norvegicus [21]": {"test_system": "Rattus norvegicus", "experiment": "Dose required for inhibition of bradycardia induced by a submaximal dose (iv) of 5-HT in 8 rats", "assay_type": "functional", "conditions": "read-out: ID50 (the source's name)"}, "Rattus norvegicus [22]": {"test_system": "Rattus norvegicus", "experiment": "Dose required for inhibition of bradycardia induced by a submaximal dose (iv) of 5-HT in 6 rats", "assay_type": "functional", "conditions": "read-out: ID50 (the source's name)"}}, "note": "Activity calls are given as the source filed them. The calls are words filed in the database; no cut-off is given here.", "data": [{"smiles": "Cc1nccn1CC1CCc2c(c3ccccc3n2C)C1=O", "note": "(centres undefined) [ONDANSETRON]", "values": [{"measurement": "inhibition in vivo at 0.006 mg/kg", "setting": "Rattus norvegicus [1]", "value": 68, "unit": "%"}, {"measurement": "ED50", "setting": "Rattus norvegicus [2]", "value": 3.6, "unit": "µg/kg"}, {"measurement": "Duration", "setting": "Rattus norvegicus [3]", "value": 14, "unit": "min"}]}, {"smiles": "COc1ccccc1NC(=O)CCc1c[nH]cn1", "values": [{"measurement": "ED50", "setting": "Rattus norvegicus [4]", "value": 35, "unit": "µg/kg"}]}, {"smiles": "CC1(C)CN(C(=O)CCc2c[nH]cn2)c2ccccc21", "values": [{"measurement": "ED50", "setting": "Rattus norvegicus [5]", "value": 4.2, "unit": "µg/kg"}]}, {"smiles": "COc1ccccc1NC(=O)NC1CC2CCC(C1)N2C", "note": "(centres undefined)", "values": [{"measurement": "ED50", "setting": "Rattus norvegicus [6]", "value": 2.5, "unit": "µg/kg"}]}, {"smiles": "CN1C2CCCC1CC(NC(=O)c1nn(C)c3ccccc13)C2", "note": "(centres undefined) [GRANISETRON]", "values": [{"measurement": "Duration", "setting": "Rattus norvegicus [7]", "value": 46, "unit": "min"}]}, {"smiles": "COc1ccccc1NC(=O)CCc1[nH]cnc1C", "values": [{"measurement": "ED50", "setting": "Rattus norvegicus [4]", "value": 20, "unit": "µg/kg"}]}, {"smiles": "Cc1[nH]cnc1CCC(=O)N1CC(C)(C)c2ccccc21", "values": [{"measurement": "Latency time", "setting": "Mustela putorius furo [8]", "value": 90.5, "unit": "min"}, {"measurement": "inhibition in vivo at 0.006 mg/kg", "setting": "Rattus norvegicus [9]", "value": 91, "unit": "%"}, {"measurement": "Activity", "setting": "[10]", "value": "inactive"}, {"measurement": "pA2", "setting": "[11]", "value": 8.1}, {"measurement": "Duration", "setting": "Rattus norvegicus [12]", "value": 66, "unit": "min"}, {"measurement": "Reduction", "setting": "Mustela putorius furo [13]", "value": 7.7}, {"measurement": "Activity", "setting": "[14]", "value": "inactive"}, {"measurement": "Activity", "setting": "[15]", "value": "inactive"}, {"measurement": "Activity", "setting": "[16]", "value": "inactive"}, {"measurement": "ED50", "setting": "Rattus norvegicus [2]", "value": 2.2, "unit": "µg/kg"}, {"measurement": "Log Ki", "setting": "[17]", "value": -6.2}, {"measurement": "Latency time", "setting": "Mustela putorius furo [18]", "value": 22.5, "unit": "min"}, {"measurement": "Reduction", "setting": "Mustela putorius furo [19]", "value": 1.3}, {"measurement": "Activity", "setting": "[20]", "value": "inactive"}]}, {"smiles": "CN1C2CCC1CC(NC(=O)N1CC(C)(C)c3ccccc31)C2", "note": "(centres undefined)", "values": [{"measurement": "ED50", "setting": "Rattus norvegicus [21]", "value": 0.67, "unit": "µg/kg"}]}, {"smiles": "Cc1[nH]cnc1CCC(=O)c1nn(C)c2ccccc12", "values": [{"measurement": "ED50", "setting": "Rattus norvegicus [22]", "value": 3.1, "unit": "µg/kg"}]}]}
